Measurements: ChEMBL document CHEMBL1201862, “PubChem BioAssay data set” (2004)
Calls of active or inactive are those of the source.

Assays:
[1] = molecular target: Caspase-6 (Homo sapiens, UniProt P55212); assay: human caspase-6 inhibitors, dose response, biochemical, VEID-R110 fluorescence, cherry-pick (AID 720632)
[2] = molecular target: T1, Protein Tat (Human immunodeficiency virus type 1 group M subtype B (isolate HXB2)(HIV-1), UniProt P04608); assay type: functional;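 also: tat binding to TAR RNA read out by fluorescence polarization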
T1 sequence (P04608 whole entry): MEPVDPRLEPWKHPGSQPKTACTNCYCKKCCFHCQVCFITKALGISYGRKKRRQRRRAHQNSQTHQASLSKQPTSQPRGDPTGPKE

[3] = inhibitors of Vif binding to APOBEC3G peptide, primary screen, biochemical, TR-FRET, GST-Vif 1-94, biotin-A3G peptide, dose response retest (AID 1117319); assay type: functional;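 also: TR-FRET signal of purified GST-Vif binding a biotinylated A3G peptide; inhibitors lower the FRET signal by blocking Vif and A3G binding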
[4] = molecular target: Genome polyprotein (dengue virus type 2, UniProt P29990); assay: Dengue-2 NS5 methyltransferase inhibitors, primary screen, biochemical, confirmation dose response (AID 588689); assay type: functional
Genome polyprotein, sequence (P29990 2492-3391 limits assumed): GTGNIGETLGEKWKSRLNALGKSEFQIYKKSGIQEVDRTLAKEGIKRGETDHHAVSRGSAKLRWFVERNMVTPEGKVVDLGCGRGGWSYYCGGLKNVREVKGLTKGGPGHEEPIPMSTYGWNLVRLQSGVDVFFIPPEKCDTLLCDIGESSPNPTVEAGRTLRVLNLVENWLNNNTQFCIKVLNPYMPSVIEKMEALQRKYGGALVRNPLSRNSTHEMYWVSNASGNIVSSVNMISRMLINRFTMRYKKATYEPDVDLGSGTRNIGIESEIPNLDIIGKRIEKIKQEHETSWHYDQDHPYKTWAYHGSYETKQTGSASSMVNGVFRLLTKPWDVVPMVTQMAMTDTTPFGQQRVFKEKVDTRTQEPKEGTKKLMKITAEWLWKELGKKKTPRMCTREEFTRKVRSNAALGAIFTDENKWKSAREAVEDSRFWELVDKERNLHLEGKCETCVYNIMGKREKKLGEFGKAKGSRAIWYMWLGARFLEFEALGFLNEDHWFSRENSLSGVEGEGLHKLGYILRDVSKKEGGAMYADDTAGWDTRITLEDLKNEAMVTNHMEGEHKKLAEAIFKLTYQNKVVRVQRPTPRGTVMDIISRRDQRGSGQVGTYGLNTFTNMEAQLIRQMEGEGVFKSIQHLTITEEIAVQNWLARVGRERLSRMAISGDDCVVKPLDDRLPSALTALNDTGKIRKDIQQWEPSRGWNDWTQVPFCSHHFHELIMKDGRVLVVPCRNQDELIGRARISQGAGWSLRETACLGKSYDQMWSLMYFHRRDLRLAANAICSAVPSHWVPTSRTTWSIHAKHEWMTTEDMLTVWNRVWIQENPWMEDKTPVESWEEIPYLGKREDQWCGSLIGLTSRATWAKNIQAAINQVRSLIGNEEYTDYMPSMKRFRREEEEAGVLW

[5] = THP-1 cell cytotoxicity, dose response, cytotoxicity control for Vif-APOBEC3G degradation inhibitor project, THP-1 cells (AID 1117359); assay type: functional; conditions: Human immunodeficiency virus 1, THP-1
[6] = molecular target: fMet-Leu-Phe receptor (Homo sapiens, UniProt P21462); assay: FPR ligands, dose response (AID 519); assay type: functional
fMet-Leu-Phe receptor, sequence (P21462 whole entry): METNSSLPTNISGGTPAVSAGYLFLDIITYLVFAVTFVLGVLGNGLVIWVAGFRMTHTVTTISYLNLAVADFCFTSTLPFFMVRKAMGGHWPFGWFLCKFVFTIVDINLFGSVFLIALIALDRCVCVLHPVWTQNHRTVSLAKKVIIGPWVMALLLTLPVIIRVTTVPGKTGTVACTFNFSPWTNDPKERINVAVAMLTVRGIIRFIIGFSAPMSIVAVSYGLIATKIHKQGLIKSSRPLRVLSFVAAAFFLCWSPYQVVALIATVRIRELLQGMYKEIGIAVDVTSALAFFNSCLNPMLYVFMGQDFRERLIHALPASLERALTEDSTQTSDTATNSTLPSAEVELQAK

[7] = inhibitors of PGC1a acetylation in cells, dose response, cell-based, cherry-picked samples (AID 720514); assay type: functional;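 also: potency may reflect raised or lowered acetylation signal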
[8] = intracellular Trypanosoma cruzi inhibitors in host cells – cell-based, plate reader, cherry-pick samples, set 3, dose response (AID 651818); assay type: functional;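 also: compounds incubated with infected cells for about four days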
[9] = system: HEK293; assay: HEK293T cell cytotoxicity, dose response, cytotoxicity control, ATP luminescence, cherry-pick samples (AID 687005); assay type: functional, cell-based; conditions: Homo sapiens;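 also: cells exposed to compound for 48 hours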
[10] = HEK293 Cytotoxicity Assay Measured in Cell-Based System Using Plate Reader - 7071-01_Inhibitor_Dose_CherryPick_Activity_Set2.; assay type: functional
[11] = system: HeLa; assay: HeLa cell cytotoxicity, dose response, cytotoxicity control, ATP luminescence, cherry-pick samples (AID 687004); assay type: functional, cell-based; conditions: Homo sapiens
[12] = molecular target: Endoplasmic reticulum aminopeptidase 1 (Homo sapiens, UniProt Q9NZ08); assay: ERAP1 aminopeptidase inhibitors, dose response, biochemical, cherry-pick, set 2, plate reader (AID 743314)
Endoplasmic reticulum aminopeptidase 1, sequence (Q9NZ08 whole entry): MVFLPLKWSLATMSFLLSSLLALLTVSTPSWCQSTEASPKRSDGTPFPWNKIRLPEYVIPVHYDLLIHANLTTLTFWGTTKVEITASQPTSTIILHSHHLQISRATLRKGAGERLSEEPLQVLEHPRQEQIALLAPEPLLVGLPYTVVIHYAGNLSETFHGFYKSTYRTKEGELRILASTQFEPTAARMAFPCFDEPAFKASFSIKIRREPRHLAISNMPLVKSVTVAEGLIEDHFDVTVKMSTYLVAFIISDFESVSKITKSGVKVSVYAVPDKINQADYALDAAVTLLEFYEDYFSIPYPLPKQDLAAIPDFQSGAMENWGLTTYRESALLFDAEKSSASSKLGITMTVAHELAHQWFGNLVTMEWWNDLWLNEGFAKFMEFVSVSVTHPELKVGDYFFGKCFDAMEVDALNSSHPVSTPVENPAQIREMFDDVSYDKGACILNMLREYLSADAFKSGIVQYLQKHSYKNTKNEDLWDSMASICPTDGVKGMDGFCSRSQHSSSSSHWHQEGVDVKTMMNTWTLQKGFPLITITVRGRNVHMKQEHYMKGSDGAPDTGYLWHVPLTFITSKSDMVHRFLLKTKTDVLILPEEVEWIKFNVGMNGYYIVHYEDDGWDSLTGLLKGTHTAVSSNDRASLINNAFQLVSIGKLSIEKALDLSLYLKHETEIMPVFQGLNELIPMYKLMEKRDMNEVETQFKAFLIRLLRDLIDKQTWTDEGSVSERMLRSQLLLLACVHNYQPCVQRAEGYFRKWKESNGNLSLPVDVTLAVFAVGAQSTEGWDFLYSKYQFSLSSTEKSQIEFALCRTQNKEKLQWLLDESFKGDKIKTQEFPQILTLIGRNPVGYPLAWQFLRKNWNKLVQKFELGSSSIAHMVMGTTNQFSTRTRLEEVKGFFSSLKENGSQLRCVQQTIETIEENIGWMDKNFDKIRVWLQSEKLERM

[13] = system: HEK293; assay: cells; assay type: functional, cell-based; conditions: Homo sapiens
[14] = molecular target: T2, Nuclear receptor subfamily 0 group B member 1 (Homo sapiens, UniProt P51843); assay: Luminescence-based cell-based high throughput dose response assay for inhibitors of the orphan nuclear receptor subfamily 0, group B, member 1 (DAX1; NR0B1). [Related pubchem assays (depositor defined):AID504766, AID504790]; assay type: functional
T2 sequence (P51843 whole entry): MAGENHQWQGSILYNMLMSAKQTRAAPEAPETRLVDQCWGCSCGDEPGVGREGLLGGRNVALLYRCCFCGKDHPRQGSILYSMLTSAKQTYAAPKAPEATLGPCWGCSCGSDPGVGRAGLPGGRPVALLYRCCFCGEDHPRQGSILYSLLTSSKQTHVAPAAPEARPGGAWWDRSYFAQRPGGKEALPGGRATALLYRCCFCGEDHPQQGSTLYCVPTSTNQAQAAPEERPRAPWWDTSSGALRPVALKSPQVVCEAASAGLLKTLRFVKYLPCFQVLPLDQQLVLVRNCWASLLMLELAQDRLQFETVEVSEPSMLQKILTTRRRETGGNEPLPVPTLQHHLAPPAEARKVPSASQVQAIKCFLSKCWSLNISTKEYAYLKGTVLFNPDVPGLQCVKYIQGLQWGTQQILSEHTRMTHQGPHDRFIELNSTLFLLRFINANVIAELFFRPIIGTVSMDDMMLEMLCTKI

[15] = Luminescence-based cell-based high throughput dose response assay to identify activators of the DAF-12 from the parasite S. stercoralis (ssDAF-12).; assay type: functional
[16] = molecular target: T3, Oxysterols receptor LXR-beta (Homo sapiens, UniProt P55055); assay: LXR agonists, Gal4 luciferase reporter, dose response, counter-screen for ssDAF-12 agonist project, cell-based, luminescence, HEK293, S. stercoralis campaign (AID 720737); assay type: functional; conditions: read-out: IC50 (the source's name)
T3 sequence (P55055 whole entry): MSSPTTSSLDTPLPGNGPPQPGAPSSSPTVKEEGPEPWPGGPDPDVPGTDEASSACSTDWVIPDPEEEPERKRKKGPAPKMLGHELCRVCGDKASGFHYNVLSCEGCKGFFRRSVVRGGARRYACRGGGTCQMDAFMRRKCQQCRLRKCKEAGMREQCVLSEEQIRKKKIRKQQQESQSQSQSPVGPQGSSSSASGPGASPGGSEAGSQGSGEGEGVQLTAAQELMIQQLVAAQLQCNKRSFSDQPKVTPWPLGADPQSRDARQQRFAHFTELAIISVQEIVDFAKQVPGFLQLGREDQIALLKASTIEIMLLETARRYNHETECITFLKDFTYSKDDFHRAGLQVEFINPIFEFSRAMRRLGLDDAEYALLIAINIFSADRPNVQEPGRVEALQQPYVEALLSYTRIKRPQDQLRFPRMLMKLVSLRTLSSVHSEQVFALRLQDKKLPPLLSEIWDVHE

[17] = P. falciparum Dd2 growth inhibitors, dose response, SYBR Green, cherry-picked samples (AID 1159567); assay type: functional, cell-based
[18] = P. falciparum ATP4 D1247Y mutant growth inhibitors, dose response, NITD609-resistant line, SYBR Green, dry powder (AID 1159571); assay type: functional, cell-based;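 also: parasites synchronized at ring stage by sorbitol before testing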
[19] = P. falciparum Dd2 growth inhibitors, dose response, SYBR Green, dry powder samples (AID 1159566); assay type: functional, cell-based;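 also: potency for growth inhibition with lower SYBR green DNA signal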
[20] = HepG2 cell cytotoxicity, dose response, cytotoxicity control, plate reader, dry powder samples (AID 1159569); assay type: functional, cell-based;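 also: inhibitor potency with signal falling toward the positive control level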
[21] = P. falciparum 3D7-ScDHODH growth inhibitors, dose response, SYBR Green, dry powder samples (AID 1159570); assay type: functional, cell-based;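 also: parasite growth measured after 72 hours of compound exposure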
[22] = HepG2 cell cytotoxicity, dose response, cytotoxicity control, cherry-picked samples (AID 1159577); assay type: functional, cell-based
[23] = Concentration-dependent survival of SW480 colon cancer line, luminescence detection with CellTiter-Glo, half-maximal inhibitory concentration (AID 1117338); assay type: functional
[24] = SNU-C1 cell viability reduction, dose response, CellTiter-Glo luminescence (AID 1117323); assay type: functional, cell-based
[25] = cytotoxicity toward HCT116 cells – cell-based, CellTiter-Glo luminescence, IC50, dose response (AID 1117332); assay type: functional; conditions: HCT-116
[26] = cytotoxicity toward HT-29 cells – cell-based, CellTiter-Glo luminescence, IC50, dose response (AID 1117330); assay type: functional
[27] = RKO cell viability reduction, dose response, CellTiter-Glo luminescence (AID 1117322); assay type: functional
[28] = CellTiter-Glo luminescent dose response of DLD-1 viability loss (AID 1117352); assay type: functional
[29] = cytotoxicity toward Colo320 cells – cell-based, CellTiter-Glo luminescence, IC50, dose response (AID 1117334); assay type: functional; conditions: COLO 320

Caspase-6, sequence (P55212 24-179 limits assumed): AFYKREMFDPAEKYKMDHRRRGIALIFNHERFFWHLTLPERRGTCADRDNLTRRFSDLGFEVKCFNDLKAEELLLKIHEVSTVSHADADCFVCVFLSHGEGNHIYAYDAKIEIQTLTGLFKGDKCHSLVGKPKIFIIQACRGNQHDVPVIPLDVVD
Caspase-6, sequence (P55212 194-293 limits assumed): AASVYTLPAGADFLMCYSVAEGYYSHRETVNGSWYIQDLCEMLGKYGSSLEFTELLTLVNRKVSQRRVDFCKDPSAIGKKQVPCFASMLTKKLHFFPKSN

O=C(c1ccccc1NS(=O)(=O)c1ccc([N+](=O)[O-])cc1[N+](=O)[O-])N1O[C@@H]2C=C[C@H]1C2
AC50 [1]: 9.9 µM (active) | IC50 [2]: > 100 µM (active) | IC50 [3]: > 100 µM (active) | IC50 [4]: 45.4 µM (active) | CC50 [5]: 36.7 µM (active)

CCc1ccccc1NC(=O)C(C#N)Cc1cccnc1 (configuration not stated)
Ki [6]: 31.7 µM (inactive)

C[C@H](CO)N1C[C@H](C)[C@H](CN(C)Cc2ccc(Oc3ccccc3)cc2)Oc2c(NC(=O)Nc3ccc4c(c3)OCO4)cccc2C1=O
AC50 [7]: 16.9 µM (active) | AC50 [8]: 3.78 µM (active)

C[C@@H]1CN([C@H](C)CO)S(=O)(=O)c2ccc(C#CC3CC3)cc2O[C@H]1CN(C)CC1CCOCC1
AC50 [9]: 15.4 µM (active) | AC50 [10]: 15.4 µM (active) | AC50 [11]: > 52 µM (inactive)

CO[C@@H](CN(C)Cc1cc(F)ccc1F)[C@@H](C)CN([C@H](C)CO)S(=O)(=O)c1ccc(F)cc1
AC50 [9]: 28.4 µM (active) | AC50 [10]: 28.4 µM (active) | AC50 [11]: > 52 µM (inactive)

COc1cccc(S(=O)(=O)N(C)C[C@@H]2Oc3ncccc3C(=O)N([C@H](C)CO)C[C@@H]2C)c1
AC50 [12]: 9.81 µM (active)

C/C(=N\Nc1cccc2cccnc12)c1ccccc1O
IC50 [13]: > 67.5 µM (inactive) | IC50 [14]: > 67.5 µM (inactive) | IC50 [15]: > 67.5 µM (inactive) | EC50 [16]: > 67.5 µM (inactive)

COc1ccc2c3c([nH]c2c1)[C@@H](CO)N(C(=O)CN(C)C)CC31CCN(CC2CCCCC2)CC1
AC50 [17]: 0.904 µM (active) | AC50 [18]: 0.731 µM (active) | AC50 [19]: 0.361 µM (active) | AC50 [20]: 23.7 µM (active) | AC50 [21]: 0.137 µM (active)

C/C=C/c1ccc([C@@H]2[C@@H]3CN(Cc4cccnc4)C[C@H]2N3)cc1
AC50 [17]: 1.41 µM (active) | AC50 [22]: > 39 µM (inactive) | AC50 [18]: 1.83 µM (active) | AC50 [19]: 1.27 µM (active) | AC50 [20]: 24.2 µM (active) | AC50 [21]: 1.41 µM (active)

C/C(=C(/OCCOc1ccc(Cl)cc1)c1ccc(Cl)cc1Cl)n1ccnc1 [OMOCONAZOLE]
IC50 [23]: 8.46 µM (inactive) | IC50 [24]: 2.35 µM (active) | IC50 [25]: > 6.67 µM (inactive) | IC50 [26]: > 6.67 µM (inactive) | IC50 [27]: > 6.67 µM (inactive) | IC50 [28]: 4.18 µM (active) | IC50 [29]: 5.86 µM (inactive)
